Test results published in patent US6160008A, “Pharmaceutical compositions comprising S-alkylisothiouronium derivatives” (priority 1996, dated 2000).
“Also recorded” adds a separate entry of the source. Like-named read-outs stand apart in the source and are kept apart here.

How the values were obtained:
[1] = Biochemical tests of dog blood serum and general toxicity, 3-day experiment (Tables 10-14); format: in vivo; details: 10 mg/kg i.v. daily, 3 days, dogs
Description: In an experiment on dogs, the functional condition of the organism was estimated by biochemical tests, after the intravenous injection of a 10% solution S-ethylisothiouronium diethylphosphate, at a dose of 10 mg/kg daily. This experiment was conducted at the same time of the day. Blood was examined 1 hour after the administration of the preparation during 3 successive days and on the 4th, the 5th and on the 10th day after injection. The concentrations of total protein, of albumin, globulins, total cholesterol, and glucose in dog blood serum were determined by conventional methods. The total protein content was determined by biureth method, total cholesterol--by like method, glucose--by glucose-oxidase method.
The general toxicity and biochemical parameters were determined in a 3-day experiment, where a 10% solution of the preparation was daily intravenously injectioned at a dose of 10 mg/kg.

[2] = system: rats exposed to an oxygen pressure of 6 atm; test: Toxic effect of oxygen at a pressure of 6 atm in rats (Tables 16-18); format: in vivo, white rats; details: 20 mg/kg i.p.
Description: Experiments on the toxic effect of oxygen at a pressure of 6 atm were carried out similarly in a hyperbaric chamber C-203 (chamber volume 0.45 m^3), on white rats, during 50 minutes. The preparation was injected intraperitoneally at a dose of 20 mg/kg. In the controls, 2 ml/kg of water for injections was injected intraperitoneally. After decompression the rats were decapitated and the glucose content, urea content, ureal nitrogen and total hemoglobine content were determined in the blood serum, as well as the index <<lung mass in gr./body mass in gr. X 100>> (i.e. lung coefficient).

[3] = system: acute arterial hypotension, caused by prazosin; test: Acute arterial hypotension caused by prazosin (Table 3); format: in vivo, cats; details: for AP / HF / Respiratory contraction frequency: 5 mg/kg i.v. after prazosin 1 mg/kg
Description: It was of interest to study the influence of S-ethylisothiouronium diethylphosphate the in case of hypotension caused by the injection of a known α1-adreno blocker, namely prazosin. Prazosin was injected singly intravenously at a dose of 1 mg/kg.

[4] = system: mice exposed to an oxygen pressure of 3 atm; test: Survival under oxygen pressure of 3 atm, mice (Table 15); format: in vivo, F1 (CBAx57B1); details: for Number of survived animals: mice, 3 atm, 5 hours
Description: Animals were exposed to oxygen under increased pressure in a hyperbaric chamber <<Mana-2≤≤ for treatment of infants above 1 year, which was adjusted for the experiments on animals. The hyperbaric chamber design permitted to create excessive pressure up to 3 atm and to observe animal behavior from outside.
The experiments were performed on males of F1 (CBAx57B1) mice line and on males of Wistar rat line. Animals were placed in the hyperbaric chamber in plastic boxes and the atmospheric air was replaced by oxygen. The period of compression-decompression was 10 minutes. The exposure of the animals to an oxygen pressure of 3 atm during a period of 2 hours caused only some increase in their motion activity. Further staying of rats and mice in those conditions led to a decrease in the motion activity, to asphyxia with short periods of excitement and cramps. The death of some animals was registered after 2.5-3 hours, 50% after 4 hours, and 75% of mice and 100% of rats were dead after 5 hours.
When the influence of Difetur and Etyron was studied, the animals were exposed to an oxygen pressure of 3 atm during 5 hours if not otherwise specified. Preparations were injected 5-10 minutes before the session.

[5] = in vivo, cited from earlier work
arterial blood pressure = test: Influence of single intravenous injection on arterial blood pressure, heart rate and respiratory rate in anesthetized cats (Table 1, FIGS. 1-10); format: in vivo; details: 5 mg/kg i.v.
Description: Experiments were performed on 52 anesthetized (intraperitoneally with 45 mg/kg of sodium pentobarbital) cats of both genders with body mass of 2.8-4.2 kg. Arterial pressure was measured by a mercury pressure gauge; measurements were also performed by ECG. Simultaneously, the respiratory frequency was registered. The hypertensive effect was determined as percent increase relative to the initial level of systolic arterial pressure (SAP). The duration of observation was 1-3 hours; the heart rate (HR) was calculated on the basis of ECG.

[6] = listed as S-ethylisothiuronium diethylphosphate

CCSC(=N)N [S-ethylisothiouronium diethylphosphate]
General toxicity and serum biochemistry in words [1]: wavy fluctuations with the tendency to decrease on the 4th and 5th day; also recorded: The level of albumins and globulins also changed in a wavy manner; also recorded: The level of total cholesterol and glucose had slight fluctuations which did not overstep the fluctuation limits of healthy dogs; also recorded: no evidence was found for intoxication or any significant deviation between the parameters studied and the initial data; also recorded: individual sensitivity of the animals to intravenous injection of the preparation was not found
Asphyxia, animal number ([2]; 36 rats): 0
Generalized cramps, % of animals ([2]; 36 rats): 2.8%
Generalized cramps, animal number ([2]; 36 rats): 1
Lateral position, animal number ([2]; 36 rats): 0
Number of perished rats ([2]; 36 rats): 0
Lung coefficient (lung mass in gr./body mass in gr. X 100) ([2]; Average ± SD, 16 animals): 0.474 ± 0.024
Glucose (blood serum) ([2]; M ± m, n = 16): 5.765 ± 0.214
Hemoglobin (blood serum) ([2]; M ± m, n = 16): 2.028 ± 0.048
Urea (blood serum) ([2]; M ± m, n = 16): 4.643 ± 0.212
Urea Nitrogen (blood serum) ([2]; M ± m, n = 16): 2.163 ± 0.099
Protection at 6 atm in words ([2]; rats, listed as Difetur): improve blood serum biochemical indices; also recorded: efficiently protect lungs from the toxic effect of increased oxygen pressure; also recorded: did not practically effect the hemoglobin content but considerably improved other indices; also recorded: significantly reduced the <<lung mass in gr./body mass>> index; also recorded: completely prevented animals' death and reduced other visible consequences of the oxygen poisoning
AP ([3]; 2 min): 135.0 ± 5.6 mm Hg
HF ([3]; 2 min): 152.4 ± 9.4 per min.
Respiratory contraction frequency ([3]; 2 min): 14.6 ± 3.9 min⁻¹
AP ([3]; 15 min): 118.8 ± 10.3 mm Hg
HF ([3]; 15 min): 146.4 ± 5.6 per min.
Respiratory contraction frequency ([3]; 15 min): 12.4 ± 3.0 min⁻¹
AP ([3]; 30 min): 116.3 ± 4.8 mm Hg
HF ([3]; 30 min): 144.0 ± 5.0 per min.
Respiratory contraction frequency ([3]; 30 min): 11.8 ± 2.3 min⁻¹
AP ([3]; 60 min): 110.0 ± 7.4 mm Hg
HF ([3]; 60 min): 135.6 ± 7.0 per min.
Respiratory contraction frequency ([3]; 60 min): 11.0 ± 1.0 min⁻¹
AP increase ([3]; 5 mg/kg i.v. after prazosin, 2nd minute): 29 mm Hg
AP above the level on the 5th minute after blocker ([3]; 5 mg/kg i.v. after prazosin, 15th minute): 11.8%
AP above the level on the 5th minute after blocker ([3]; 5 mg/kg i.v. after prazosin, 30th minute): 9.4%
Effect under α1-adreno blockade in words ([3]; after prazosin): Statistically significant changes of HR and respiratory movement frequency were not observed; also recorded: increases AP also on the background of α1-adreno blockers though with a lower duration than without them; also recorded: retain its activity in conditions of alpha-adrenergic blockade
Number of survived animals ([4]; 5 mg/kg): 25%
Number of survived animals ([4]; 10 mg/kg): 65%
Number of survived animals ([4]; 20 mg/kg): 88%
Oxygen protective activity compared with Etyron ([4]; mouse, in vivo): exceed Etyron in oxygen protective activity
Radioprotective effect in words [5]: radioprotective effect
Radioprotective effect in words ([5]; listed as Difetur): distinct radioprotective effect
Hypertensive activity, % (increase relative to the initial level of SAP) (arterial blood pressure): 40%
Hypertensive effect in words (arterial blood pressure): one of the most active compounds; also recorded: most active compound
RR (influence on respiratory rate) (arterial blood pressure): increases RR
Time to achieve maximum effect (arterial blood pressure): 2 min
Hypertensive activity (increase of SAP) (arterial blood pressure; given as "> SAP by", listed as S-ethylisothiuronium diethylphosphate): 40 mm Hg
Duration of effect (arterial blood pressure; [6]): 1 to 1.5 h
Hypertensive activity, % (increase relative to the initial level of SAP) (arterial blood pressure; [6]): 40%
Influence on HR (arterial blood pressure; [6]): Bradycardia
RR (influence on respiratory rate) (arterial blood pressure; [6]): Increases
